Results taken from patent US20090062294A1, “HETEROARYL-SUBSTITUTED UREA MODULATORS OF FATTY ACID AMIDE HYDROLASE” (priority 2007, published 2009).
Structures can show the parent of a compound that is named as a salt.

Each molecule was assayed against T1, FAAH (Homo sapiens, UniProt O00519) (assay: Assay Method 1: FAAH assay, 3H-anandamide hydrolysis in homogenate of T84 cells or SK-N-MC cells transfected with human FAAH). Details: average of results, > = solubility limit or highest concentration tested.
T1 sequence (O00519 1-579): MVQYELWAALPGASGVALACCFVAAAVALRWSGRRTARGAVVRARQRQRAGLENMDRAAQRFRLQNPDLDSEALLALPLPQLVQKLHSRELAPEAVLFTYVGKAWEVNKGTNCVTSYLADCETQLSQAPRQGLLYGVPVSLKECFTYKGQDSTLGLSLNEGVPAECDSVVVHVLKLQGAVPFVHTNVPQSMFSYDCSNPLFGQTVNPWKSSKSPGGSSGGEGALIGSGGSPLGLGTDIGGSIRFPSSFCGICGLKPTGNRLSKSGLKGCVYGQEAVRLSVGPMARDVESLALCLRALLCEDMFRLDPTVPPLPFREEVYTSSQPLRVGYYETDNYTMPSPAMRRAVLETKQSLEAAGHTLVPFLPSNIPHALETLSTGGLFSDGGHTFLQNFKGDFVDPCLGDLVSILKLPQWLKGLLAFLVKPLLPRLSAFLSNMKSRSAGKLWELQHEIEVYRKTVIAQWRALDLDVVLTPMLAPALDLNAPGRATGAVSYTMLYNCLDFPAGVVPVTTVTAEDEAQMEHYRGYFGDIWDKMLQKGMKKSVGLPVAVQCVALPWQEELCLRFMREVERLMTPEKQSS
Type: biochemical
Protocol: A. Transfection of Cells with Human FAAH
(§1) A 10-cm tissue culture dish with a confluent monolayer of SK—N-MC cells was split 2 days (d) prior to transfection. Using sterile technique, the media was removed and the cells were detached from the dish by the addition of trypsin. One fifth of the cells were then placed onto a new 10-cm dish. Cells were grown in a 37° C. incubator with 5% CO2 in Minimal Essential Media Eagle with 10% Fetal Bovine Serum. After 2 d, cells were approximately 80% confluent. These cells were removed from the dish with trypsin and pelleted in a clinical centrifuge. The pellet was re-suspended in 400 μL complete media and transferred to an electroporation cuvette with a 0.4 cm gap between the electrodes. Supercoiled human FAAH cDNA (1 μg) was added to the cells and mixed. The voltage for the electroporation was set at 0.25 kV, and the capacitance was set at 960 μF. After electroporation, the cells were diluted into complete media (10 mL) and plated onto four 10-cm dishes. Because of the variability in the efficiency of electroporation, four different concentrations of cells were plated. The ratios used were 1:20, 1:10, and 1:5, with the remainder of the cells being added to the fourth dish. The cells were allowed to recover for 24 h before adding the selection media (complete media with 600 μg/mL G418). After 10 d, dishes were analyzed for surviving colonies of cells. Dishes with well-isolated colonies were used. Cells from individual colonies were isolated and tested.
(§2) T84 frozen cell pellets or transfected SK—N-MC cells (contents of 1×15 cm culture dishes) were homogenized in 50 mL of FAAH assay buffer (125 mM Tris, 1 mM EDTA, 0.2% Glycerol, 0.02% Triton X-100, 0.4 mM Hepes, pH 9). The assay mixture consisted of 50 μL of the cell homogenate, 10 μL of the test compound, and 40 μL of anandamide [1-^3H-ethanolamine] (^3H-AEA, Perkin-Elmer, 10.3 Ci/mmol), which was added last, for a final tracer concentration of 80 nM. The reaction mixture was incubated at rt for 1 h. During the incubation, 96-well Multiscreen filter plates (catalog number MAFCNOB50; Millipore, Bedford, Mass., USA) were loaded with 25 μL of activated charcoal (Multiscreen column loader, catalog number MACL09625, Millipore) and washed once with 100 μL of MeOH. Also during the incubation, 96-well DYNEX MicroLite plates (catalog number NL510410) were loaded with 100 μL of MicroScint40 (catalog number 6013641, Packard Bioscience, Meriden, Conn., USA). After the 1 h incubation, 60 μL of the reaction mixture were transferred to the charcoal plates, which were then assembled on top of the DYNEX plates using Centrifuge Alignment Frames (catalog number MACF09604, Millipore). The unbound labeled ethanolamine was centrifuged through to the bottom plate (5 min at 2000 rpm), which was preloaded with the scintillant, as described above. The plates were sealed and left at rt for 1 h before counting on a Hewlett Packard TopCount.
(§3) Compounds were tested in free base, hydrochloride salt, and/or trifluoroacetic acid salt forms.

Structure (SMILES)	IC50
O=C(Nc1noc2ccccc12)N1CCN(Cc2ccc3c(c2)OC(F)(F)O3)CC1 [Example 1, 4-(2,2-Difluoro-benzo[1,3]dioxol-5-ylmethyl)-piperazine-1-carboxylic acid benzo[d]isoxazol-3-ylamide trifluoroacetic acid salt]	103 nM
O=C(Nc1nc(-c2ccccc2)ns1)N1CCN(Cc2ccc3c(c2)OC(F)(F)O3)CC1 [Example 2, 4-(2,2-Difluoro-benzo[1,3]dioxol-5-ylmethyl)-piperazine-1-carboxylic acid (3-phenyl-[1,2,4]thiadiazol-5-yl)-amide trifluoroacetic acid salt]	212 nM
O=C(Nc1nnn[nH]1)N1CCN(Cc2ccc3c(c2)OC(F)(F)O3)CC1 [Example 3, 4-(2,2-Difluoro-benzo[1,3]dioxol-5-ylmethyl)-piperazine-1-carboxylic acid (1H-tetrazol-5-yl)-amide trifluoroacetic acid salt]	1200 nM
O=C(Nc1cccc2nsnc12)N1CCN(Cc2ccc3c(c2)OC(F)(F)O3)CC1 [Example 4, 4-(2,2-Difluoro-benzo[1,3]dioxol-5-ylmethyl)-piperazine-1-carboxylic acid benzo[1,2,5]thiadiazol-4-ylamide trifluoroacetic acid salt]	59 nM
O=C(Nc1noc2ccccc12)N1CCN(Cc2cccc(Oc3ncccn3)c2)CC1 [Example 95, 4-[3-(Pyrimidin-2-yloxy)-benzyl]-piperazine-1-carboxylic acid benzo[d]isoxazol-3-ylamide]	2800 nM

The remaining lines, values ahead:

IC50	Structure (SMILES)
6300 nM	O=C(Nc1noc2ccccc12)N1CCN(Cc2ccc3cn[nH]c3c2)CC1 [Example 101, N-1,2-Benzisoxazol-3-yl-4-(1H-indazol-6-ylmethyl)piperazine-1-carboxamide]
825 nM	O=C(Nc1ccon1)N1CCN(Cc2ccc(OCc3ccccc3)cc2)CC1 [Example 135, 4-[4-(Benzyloxy)benzyl]-N-isoxazol-3-ylpiperazine-1-carboxamide]
2000 nM	O=C(Nc1ccon1)N1CCN(Cc2cc3ccccc3s2)CC1 [Example 142, 4-(1-Benzothiophen-2-ylmethyl)-N-isoxazol-3-ylpiperazine-1-carboxamide]
3000 nM	O=C(Nc1ccon1)N1CCN(Cc2ccc3ccccc3n2)CC1 [Example 146, 4-Quinolin-2-ylmethyl-piperazine-1-carboxylic acid isoxazol-3-ylamide]
1300 nM	O=C(Nc1ccon1)N1CCN(Cc2ccc(Br)c(Br)c2)CC1 [Example 154, 4-(3,4-Dibromobenzyl)-N-isoxazol-3-ylpiperazine-1-carboxamide]
> 10000 nM	O=C(Nc1nn[nH]n1)N1CCN(Cc2ccc3c(c2)OCO3)CC1 [Example 180, 4-Benzo[1,3]dioxol-5-ylmethyl-piperazine-1-carboxylic acid (2H-tetrazol-5-yl)-amide]
230 nM	O=C(Nc1cnccn1)N1CCN(Cc2ccc(OCc3ccccc3)cc2)CC1 [Example 219, 4-[4-(Benzyloxy)benzyl]-N-pyrazin-2-ylpiperazine-1-carboxamide]
180 nM	O=C(Nc1cnccn1)N1CCN(Cc2cccc(OCc3ccccc3)c2)CC1 [Example 223, 4-[3-(Benzyloxy)benzyl]-N-pyrazin-2-ylpiperazine-1-carboxamide]

What follows are molecules tested against T2, rat FAAH (Rattus norvegicus, UniProt P97612) (assay: Assay Method 2: FAAH assay, 3H-anandamide hydrolysis in homogenate of SK-N-MC cells transfected with rat FAAH). Details: average of results, > = solubility limit or highest concentration tested.
T2 sequence (P97612 1-579): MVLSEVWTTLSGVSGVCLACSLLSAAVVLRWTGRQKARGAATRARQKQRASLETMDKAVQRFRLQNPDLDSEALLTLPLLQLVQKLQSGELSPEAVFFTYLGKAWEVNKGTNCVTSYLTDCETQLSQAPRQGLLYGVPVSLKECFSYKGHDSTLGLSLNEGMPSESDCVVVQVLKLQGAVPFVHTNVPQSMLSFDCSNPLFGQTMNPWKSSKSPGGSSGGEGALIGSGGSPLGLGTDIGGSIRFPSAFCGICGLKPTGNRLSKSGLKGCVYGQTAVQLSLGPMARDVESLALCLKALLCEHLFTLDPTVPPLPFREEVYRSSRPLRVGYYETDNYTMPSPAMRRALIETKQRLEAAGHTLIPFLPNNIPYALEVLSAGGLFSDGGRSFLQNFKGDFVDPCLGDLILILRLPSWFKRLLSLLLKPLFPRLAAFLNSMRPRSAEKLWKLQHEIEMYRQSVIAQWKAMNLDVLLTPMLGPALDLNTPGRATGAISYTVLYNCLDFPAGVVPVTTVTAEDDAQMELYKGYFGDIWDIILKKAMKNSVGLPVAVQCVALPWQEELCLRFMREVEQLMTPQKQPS
Type: biochemical
Protocol: A. Transfection of Cells with Rat FAAH
as §1, with “rat” for “human”
as §2, §3

Structure (SMILES)	IC50
O=C(Nc1noc2ccccc12)N1CCN(Cc2ccc3c(c2)OC(F)(F)O3)CC1 [Example 1, 4-(2,2-Difluoro-benzo[1,3]dioxol-5-ylmethyl)-piperazine-1-carboxylic acid benzo[d]isoxazol-3-ylamide trifluoroacetic acid salt]	337 nM
O=C(Nc1nnn[nH]1)N1CCN(Cc2ccc3c(c2)OC(F)(F)O3)CC1 [Example 3, 4-(2,2-Difluoro-benzo[1,3]dioxol-5-ylmethyl)-piperazine-1-carboxylic acid (1H-tetrazol-5-yl)-amide trifluoroacetic acid salt]	9000 nM
O=C(Nc1cccc2nsnc12)N1CCN(Cc2ccc3c(c2)OC(F)(F)O3)CC1 [Example 4, 4-(2,2-Difluoro-benzo[1,3]dioxol-5-ylmethyl)-piperazine-1-carboxylic acid benzo[1,2,5]thiadiazol-4-ylamide trifluoroacetic acid salt]	260 nM
O=C(Nc1ccc2ncccc2n1)N1CCC(Cc2ccc3ccccc3c2)CC1 [Example 17, 4-Naphthalen-2-ylmethyl-piperidine-1-carboxylic acid [1,5]naphthyridin-2-ylamide trifluoroacetic acid salt]	517 nM
O=C(Nc1ccc(Cl)nn1)N1CCC(Cc2ccc(F)cc2)CC1 [Example 23, 4-(4-Fluoro-benzyl)-piperidine-1-carboxylic acid (6-chloro-pyridazin-3-yl)-amide]	5000 nM
O=C(Nc1ccon1)N1CCC(Cc2ccc(F)cc2)CC1 [Example 24, 4-(4-Fluoro-benzyl)-piperidine-1-carboxylic acid isoxazol-3-ylamide]	4000 nM
O=C(Nc1cccc2nsnc12)N1CCN(Cc2cccc(Oc3ccc(Cl)cc3)c2)CC1 [Example 37, 4-[3-(4-Chloro-phenoxy)-benzyl]-piperazine-1-carboxylic acid benzo[1,2,5]thiadiazol-4-ylamide trifluoroacetic acid salt]	6 nM
O=C(Nc1cc[nH]n1)N1CCN(Cc2cccc(Oc3ccc(Cl)cc3)c2)CC1 [Example 53, 4-[3-(4-Chloro-phenoxy)-benzyl]-piperazine-1-carboxylic acid (1H-pyrazol-3-yl)-amide trifluoroacetic acid salt]	30 nM
O=C(Nc1nnn[nH]1)N1CCN(Cc2cccc(Oc3ccc(Cl)cc3)c2)CC1 [Example 57, 4-[3-(4-Chloro-phenoxy)-benzyl]-piperazine-1-carboxylic acid (1H-tetrazol-5-yl)-amide trifluoroacetic acid salt]	167 nM

Further lines, results first:

IC50	Structure (SMILES)
> 10000 nM	O=C(Nc1ccon1)N1CCN(Cc2cnc3ccccc3c2)CC1 [Example 147, 4-Quinolin-3-ylmethyl-piperazine-1-carboxylic acid isoxazol-3-ylamide]
1000 nM	O=C(Nc1nnn[nH]1)N1CCN(Cc2ccc3ccccc3n2)CC1 [Example 175, 4-(Quinolin-2-ylmethyl)-N-1H-tetrazol-5-ylpiperazine-1-carboxamide]
